Key:
[1] = system: GST-P-positive lesions in livers of male Wistar rats fed the CDAA diet; experiment: Example 2: numbers and sizes of GST-P-positive liver lesions, CDAA diet for 16 weeks; assay type: in vivo, rat; settings: high dose 0.090% in CDAA diet
Description: Animals. A total of 110 male Wistar rats were obtained at 5 weeks of age from Charles River Japan, Inc., Atsugi, Kanagawa, Japan. Experimentation began after a 1-week acclimation on a basal diet (CE-2 diet, Clea Japan, Meguro, Tokyo, Japan). Rats were housed 5 each in plastic cages with white flake bedding (Kansai Animal Corp., City of Kyoto, Kyoto, Japan) in a standard atmosphere (temperature, 25±3° C.; relative humidity, 55±8%; ventilation, 10-15/hour; and a 12-hour dark/light cycle). Free access to food and tap water was allowed throughout the acclimation and experimental periods.
Diets and chemicals. The CDAA diet and its control, a choline-supplemented, L-amino acid-defined (CSAA) diet (Nakae et al. 1992; and Nakae et al. 1990) were obtained from Dyets, Inc., Bethlehem, Pa. […] 2-Sulfoxy-PBN (2-SPBN) was purchased from Aldrich Chemical Co. (Milwaukee, Wis.).
(§1) Animal experiment. After acclimation, rats were divided equally into 22 groups consisting of 5 animals each. Animals in group 1 received the CDAA diet alone. […] Groups 5-7, 8-10, 11-13 and 14-16 received the CDAA diet containing the low, middle, and high doses of 4-OHPBN, 3-OHPBN, 2-OHPBN and 2-SPBN, respectively. Group 17 received the CSAA diet alone. […] All animals were sacrificed by exsanguination under light ether anesthesia 16 weeks after commencement, and the livers excised. Slices 5-mm-thick were taken from the left lateral, median and right lateral lobes of the livers, fixed in 10% neutrally-buffered formalin for 24 hours and then embedded in paraffin. Five serial 4-μm-thick sections were prepared from each fixed liver slice and used for histological and immunohistochemical assessment as described below. The remaining portions of the livers were immediately frozen under liquid nitrogen and stored at −80° C. until use.
Histological and immunohistochemical assessments. Histological assessment was performed using sections routinely stained with hematoxylin/eosin and Masson's trichrome procedures. Gradation of fibrosis was quantitatively evaluated in groups 1, 4, 7, 10, 13, 16 and 17 by calculating the percent area occupied by collagen fiber stained blue by Masson's trichrome method using an IPAP image analyzing system (Sumika Technoservice Corp., City of Osaka, Osaka, Japan). GST-P-positive lesions were visualized immunohistochemically. Lesions consisting of more than 6 cells were quantified using the IPAP system as described elsewhere (Kishida et al. 2000). The amount of apoptosis and the cellular proliferative activity were determined in groups 1, 4, 7, 10, 13, 16 and 17, using the double staining techniques by combination of the GST-P immunohistochemistry as above with the in situ terminal deoxynucleotidyl transferase-mediated dUTP-biotin nick end-labeling method (Gold et al. 1994) and the enhanced polymer one-step staining method for proliferating cell nuclear antigen (Tsutsumi et al. 1995), respectively. Numbers of apoptotic and proliferating hepatocytes among the 1000-5000 hepatocytes in GST-P-positive lesions and 5000 hepatocytes in surrounding tissue were counted under light microscopy to obtain percentages that are hereafter referred as apoptotic and proliferative indices, respectively.
(§2) Statistics. Inter-group differences in quantitative data for multiple groups were recognized to be significant, when p values smaller than 0.05 were obtained by the Dunnett multiple comparison test employed after one-way analysis of variance to determine the variation among the group means followed by the Bartlett's test to determine the homogeniety of variance.

[2] = system: livers of male Wistar rats fed the CDAA diet; experiment: Example 2: oxidative hepatocyte injuries (8-OHdG, TBARS); assay type: in vivo, rat
Excerpt: as §1
Determination of oxidative hepatocyte injuries. Levels of oxidative damage to the hepatocytes were determined on frozen liver samples. Oxidative damage to nuclear DNA was assessed as previously described, using the amount of 8-hydroxydeoxyguanosine (8-OHdG) to 10^6 deoxyguanosine (dG) ratio as a parameter (Nakae et al. 1995). Oxidative injury to extra-nuclear components was assessed as described elsewhere, by determining picomole malondialdehyde equivalent (MDA eq.) levels of 2-thiobarbituric acid-reacting substances (TBARS) per milligram protein (Nakae et al. 1990).
as §2

CC(C)(C)[N+]([O-])=Cc1ccccc1 [PBN, phenyl N-tert-butyl nitrone]
number of GST-P-positive lesions, % of the group 1 value [1]: 52%
sizes of GST-P-positive lesions, % of the group 1 value [1]: 19%
nuclear DNA 8-OHdG content increased by CDAA diet feeding ([2]; all doses, CDAA diet 16 weeks): significantly inhibited
TBARS level enhanced by CDAA feeding ([2]; high dose 0.090% only): significantly inhibited

— patent US6569902B2, “Nitrone inhibition of cancer development” (Oklahoma Medical Research Foundation, priority 2000, dated 2003)
